According to patent US6849607B2, “Galectin recognized photosensitizers for photodynamic therapy” (Health Research, Inc., priority 2001, dated 2005):
Where “and” joins values, the source holds several entries; their conditions need not be identical. Equal entries are not always repeated.

How the values were obtained:
[1] = target: Gal-1 (Homo sapiens, UniProt P09382); experiment: Gal-1 inhibition binding, indirect ELISA (Gal-1-HRP conjugate on asialofetuin-coated wells)
Experimental: Cell. Biochem., 43, 43-57, 1990) to eliminate the thiol requirement for retention of carbohydrate-binding activity. Coupling of alkylated galaptin to Horseradish peroxidase (HRP) was carried out by a two-step glutaraldehyde procedure as described by Engvall (Engvall E., Enzyme Immunoassay ELISA and EMIT, Methods in Enzymology, 70, 419-439, 1980). The galactin-peroxidase conjugate was prepared in 50% glycerol-1% BSA and stored at -20° C. until use. The binding of the Gal-1 to photosensitizers with and without the galactose moiety was measured by an indirect ELISA method as described by Chen et al. […] The microtiter wells (Dynatech Laboratories, Chantilly, Va.) were coated with 2 μg asial fetuin (Sigma) in 100 μl of 0.1M sodium carbonate, 0.2% NaN3, pH 9.6 at 37° C. for 3h. The plates were tightly covered with parafilm and stored at 4° C. for use within three weeks. The optimal dilution for Gal-1HRP conjugate was determined by checker-board titration. For studying the effect of saccharides and their conjugates, 60 μl aliquots of diluted Gal-1-HRP conjugate containing 1.4 μg of Gal-1 were mixed separately in duplicate with 60 μl dilute buffer as well as serially diluted test compounds and incubated for 1 h at 37° C. A 100 μl aliquot was transferred to the microtiter wells, which had been coated with […] Fetuin, blocked and washed. The plates were then incubated for 1 h at 37° C. followed by color development with ABTS (Kirkegaard & Perry lab. Gaithersburg, Md.) and reading at 405 nm on an ELISA reader.

[2] = system: radiation induced fibrosarcoma (RIF) tumor cell; experiment: In vitro photosensitizing activity in RIF tumor cells (MTT); assay type: cell-based; conditions: 2.0 μM, light dose of 4 J/cm2
Experimental: Both cell lines are known to have some expression for Galectin-1 (Sacchettini, J. C., Baum, L. G. and Brewer, C. F., Multivalent Protein-carbohydrate Interactions. A New Paradiagm for Super Molecular Assembly and Signal Transduction, Biochemistry, 40:3009-3015, 2001). The Molt-4 cells were grown in RPMI 1640 5% FCS (Fetal calf serum) in 100% humidity with 5% CO2. Cells were transferred to phenol red free (PRF) RPMI 1640 media with 1% FCS and plated at 2.5×10^4 cells/well. After 3 hours incubation in the dark, the cells were washed once with PBS and re-suspended in prf RPMI 1640 with 1% FCS. These cells were then illuminated with a 1000W Quartz Halogen Lamp with IR and bandpass dichroic filters to allow light between 400 nm-700 nm, at a dose rate of 16 mW/cm^2 at 695 nm. The RIF tumor cells were grown in alpha-DMEM with 10% fetal calf serum, penicillin and streptomycin. Cells were maintained in 5% CO2, 95% air and 100% humidity. For determining the PDT efficacy, these cells were plated in 96-well plates and a density of 1×10^4 cells well in complete media. After overnight incubation to allow the cells to attach the photosensitizers 14 were individually added at variable concentrations. After a 3 hr incubation in the dark at 37° C., the cells were washed once with PBS, then irradiated with the same light source as above (Molt-4 procedure), and the optimal cell kill was obtained at a concentration of 1.0 μM. After PDT the cells were washed once and placed in complete media and incubated for 48 hrs. […] The 96-well plate was read on a microtiter plate reader (Miles Inc. Titertek Multiscan Plus MK II) at an absorbance of 560 nm. […]

[3] = system: Molt-4 cells; experiment: Cellular localization by fluorescence microscopy in Molt-4 cells; assay type: cell-based, human
Experimental: (§1) For investigating the difference in sites of localization between the photosensitizers with and without carbohydrate moieties, the fluorescence light microscopy experiments were performed in Molt-4 and RIF tumor cell lines. In a typical experiment, cells were imaged at 100× on an inverted fluorescence microscope (Carl Zeiss Inc. Axiovert 35.W.Germany) with a charged-coupled device camera (Dage-MTI, model 104722-02). Images were captured and processed by computer using Image-1 image processing software (Universal Imaging Corp., version 4.0, WestChester, Pa.). The photosensitizer fluorescence was assessed by using 530-585 nm excitation and 615 nm long-pass filter to measure emission while 338-378 nm excitation for DPH, and a 450 nm emission filter for emission (400 nm dichroic). […] In addition, […]1-(4-trimethylammonium)-6-phenyl-1,3,5-hexatriene (TMA-DPH), a hydrophobic fluorescent probe which interacts with living cells by instantaneous incorporation into plasma membrane and becomes fluorescent (Illinger, D., and Kuhry, J. G., The Kinetic Aspects of Intracellular Fluorescence Labeling with TMA-DPH Support the Maturation Model for Endocytosis in L929 Cells, The Journal of Cell Biology, 125:783-794, 1994), was added for the last 5 min of the incubation, cells were washed once with PBS and transferred to a microscope slide for imaging. […]

[4] = system: RIF tumor cells; experiment: Cellular localization in RIF tumor cells with DPH counterstain; assay type: cell-based; conditions: RIF cells (FIGS. 9a and 9b)
Experimental: as §1

Sequence of Gal-1 (P09382 whole entry): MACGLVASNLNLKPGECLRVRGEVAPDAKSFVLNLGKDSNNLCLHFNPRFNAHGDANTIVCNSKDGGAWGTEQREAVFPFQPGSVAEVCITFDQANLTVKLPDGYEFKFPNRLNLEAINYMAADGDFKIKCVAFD

increase in I50 inhibition binding affinity compared to the galactose conjugate 2 [1]	IC50 ([1]; ELISA, read-out: I50, inhibition of Gal-1 binding)	inhibition at 450 µM ([1]; at 450 μM)	inhibition of Gal-1 binding ([1]; at 450 μM)	Molecule	cell kill [2]	fluorescence in presence of free lactose ([3]; lactose 100 μM)	cellular localization with DPH as a counterstain [4]	cellular localization ([3]; incubated for 3 hrs)
40 fold	540 nM and 500 nM	29%		C=C(C=CCO[C@@H]1O[C@H](CO)[C@@H](O[C@@H]2O[C@H](CO)[C@H](O)[C@H](O)[C@H]2O)[C@H](O)[C@H]1O)CN1C(=O)c2c3nc(cc4[nH]c(cc5nc(cc6[nH]c2c(c6C)C1=O)C(CC)=C5C)c(CC)c4C)C(C)C3CCC(=O)OC (mixture of isomers) [4a, Lactose-Chlorin conjugate joined with diene linkage]	100%	No fluorescence was observed	intense plasma membrane fluorescence	
			29%	Mesopurpurin-18-N-methyl-(2′-butadiene)imide [1a]	approximately 40%		diffuse intracellular localization	intracellular localization
